Data taken from the Kinase Knowledgebase extract (Sharma et al. 2016).

biological target: MAPK14 (human) (UniProt Q16539); assay: Inhibition of MAPK14 Kinase Activity
Sequence (Q16539 whole entry, looked up): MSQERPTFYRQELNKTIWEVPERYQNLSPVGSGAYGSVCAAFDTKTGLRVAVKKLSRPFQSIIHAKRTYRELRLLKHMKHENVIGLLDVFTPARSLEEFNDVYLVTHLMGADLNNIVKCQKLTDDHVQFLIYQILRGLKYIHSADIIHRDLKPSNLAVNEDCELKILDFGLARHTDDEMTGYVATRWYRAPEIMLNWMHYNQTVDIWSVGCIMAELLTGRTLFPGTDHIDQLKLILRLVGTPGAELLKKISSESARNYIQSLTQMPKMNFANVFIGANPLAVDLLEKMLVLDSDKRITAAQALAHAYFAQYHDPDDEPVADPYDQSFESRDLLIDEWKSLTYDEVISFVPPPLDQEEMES

Row | IC50 [µM] | SMILES
1 | ≤ 10 | Cc1ccccc1CC1CCC(=O)N(c2c(Cl)csc2Cl)C1 (stereo unspecified)
2 | ≤ 10 | O=C1CCC(Cc2cccc3ccccc23)CN1c1c(Cl)cncc1Cl (stereo unspecified)
3 | ≤ 10 | O=C1CCC(Oc2ccc(F)cc2)CN1c1c(Cl)csc1Cl (stereo unspecified)
4 | ≤ 10 | O=C1CCC(Sc2ccc(Cl)cc2Cl)CN1c1c(Cl)cccc1Cl (stereo unspecified)
5 | ≤ 10 | CNc1cc(Cl)c(N2CC(Cc3ccc(F)cc3F)CCC2=O)c(Cl)c1 (stereo unspecified)
6 | ≤ 10 | CC(=O)Nc1ccc(Cl)c(N2CC(Sc3ccc(F)cc3F)CCC2=O)c1Cl (stereo unspecified)
7 | ≤ 10 | O=C1CCC(Sc2ccc(Cl)cc2)CN1c1c(Cl)cncc1Cl (stereo unspecified)
8 | ≤ 10 | COC(=O)c1cc(C)c(N2C[C@@H](Cc3ccc(F)cc3F)C[C@@H](C)C2=O)c(C)c1
9 | ≤ 10 | O=C(Cc1ccccc1)Nc1ccc(Cl)c(N2CC(Cc3ccc(F)cc3F)SCC2=O)c1Cl (stereo unspecified)
10 | ≤ 10 | O=C(Cc1ccccc1)Nc1cc(Cl)c(N2CC(Oc3ccc(F)cc3F)CCC2=O)c(Cl)n1 (stereo unspecified)
11 | ≤ 10 | N[C@@H](CO)C(=O)Nc1cc(Cl)c(N2CC(Cc3ccc(F)cc3F)CCC2=O)c(Cl)c1 (stereo partly specified)
12 | ≤ 10 | COc1ccc(CC2CCC(=O)N(c3c(Cl)cccc3Cl)C2)cc1 (stereo unspecified)
13 | ≤ 10 | O=C1COC(Cc2ccc(Cl)cc2)CN1c1c(Cl)cccc1Cl (stereo unspecified)
14 | ≤ 10 | CC(C)(C)OC(=O)Nc1ccc(Cl)c(N2CC(Cc3ccc(F)cc3F)CCC2=O)c1 (stereo unspecified)
15 | ≤ 10 | CN1CC(Cc2ccc(Cl)cc2)CN(c2c(Cl)cccc2Cl)C1=O (stereo unspecified)
16 | ≤ 10 | Cc1nc(CNc2cc(Cl)c(N3CC(Cc4ccc(F)cc4F)CCC3=O)c(Cl)c2)c[nH]1 (stereo unspecified)
17 | ≤ 10 | CN1CC(Cc2ccccc2Cl)CN(c2c(Cl)cccc2Cl)C1=O (stereo unspecified)
18 | ≤ 10 | COC(=O)Nc1cc(Cl)c(N2CC(Cc3ccc(F)cc3F)CCC2=O)c(Cl)c1 (stereo unspecified)
19 | ≤ 10 | Cc1ccc(CC2COC(=O)N(c3c(Cl)cccc3Cl)C2)c(C)c1 (stereo unspecified)
20 | ≤ 10 | COc1ccccc1CC1CCC(=O)N(c2c(Cl)cncc2Cl)C1 (stereo unspecified)
21 | ≤ 10 | O=C1CCC(Oc2ccc(Cl)cc2Cl)CN1c1c(Cl)csc1Cl (stereo unspecified)
22 | ≤ 10 | C[C@@H]1C[C@@H](Cc2ccc(F)cc2F)CN(c2c(Cl)cccc2Cl)C1=O
23 | ≤ 10 | CNC(=O)CNc1cc(Cl)c(N2CC(Cc3ccc(F)cc3F)CCC2=O)c(Cl)c1 (stereo unspecified)

Row | IC50 [µM] | SMILES
24 | ≤ 10 | Cc1cccc(C)c1N1C[C@@H](N(C)S(=O)(=O)c2ccc(F)cc2F)CCC1=O
25 | ≤ 10 | COCOCc1ccccc1CC1CCC(=O)N(c2c(Cl)cccc2Cl)C1 (stereo unspecified)
26 | ≤ 10 | CNc1ccc(Cl)c(N2CC(Cc3ccc(F)cc3F)SCC2=O)c1Cl (stereo unspecified)
27 | ≤ 10 | O=C1CCC(Cc2ccc3ccccc3c2)CN1c1c(Cl)cncc1Cl (stereo unspecified)
28 | ≤ 10 | O=C1CCC(Cc2ccc(F)cc2F)CN1C1CCCCC1 (stereo unspecified)
29 | ≤ 10 | O=C(Cc1ccccc1)Nc1cc(Cl)c(N2CC(Sc3ccc(F)cc3F)CCC2=O)c(Cl)n1 (stereo unspecified)
30 | ≤ 10 | O=C1CCC(Oc2cccc3ccccc23)CN1c1c(Cl)csc1Cl (stereo unspecified)
31 | ≤ 10 | O=C1CCC(Cc2cc(F)cc(F)c2)CN1c1c(Cl)csc1Cl (stereo unspecified)
32 | ≤ 10 | Cc1ccc(CC2CCC(=O)N(C3C(Cl)CCCC3Cl)C2)c(C)c1 (stereo unspecified)
33 | ≤ 10 | NC1CCC(Cl)C(N2CC(Oc3ccc(F)cc3F)CCC2=O)C1Cl (stereo unspecified)
34 | ≤ 10 | C=C(c1ccc(F)cc1F)C1CCC(=O)N(c2c(Cl)cccc2Cl)C1 (stereo unspecified)
35 | ≤ 10 | O=C(c1ccc(F)cc1F)C1CCC(=O)N(c2c(Cl)cccc2Cl)C1 (stereo unspecified)
36 | ≤ 10 | O=C1SCC(Cc2ccccc2)CN1c1c(Cl)cccc1Cl (stereo unspecified)
37 | ≤ 10 | O=C1CCC(Cc2ccc(F)cc2F)CN1c1c(Cl)sc(O)c1Cl (stereo unspecified)
38 | ≤ 10 | COc1ccc(SC2CCC(=O)N(c3c(Cl)cccc3Cl)C2)cc1 (stereo unspecified)
39 | ≤ 10 | CC(=O)Nc1cc(Cl)c(N2CC(Cc3ccc(F)cc3F)CNC2=O)c(Cl)c1 (stereo unspecified)
40 | ≤ 10 | O=C1CCC(Cc2ccccc2)CN1c1c(Cl)cccc1Cl (stereo unspecified)
41 | ≤ 10 | Cc1ccc(OC2CCC(=O)N(C3C(Cl)CCCC3Cl)C2)cc1 (stereo unspecified)
42 | ≤ 10 | O=C1CCC(Sc2ccccc2Cl)CN1c1c(Cl)cncc1Cl (stereo unspecified)
43 | ≤ 10 | Cc1ccccc1OC1CCC(=O)N(c2c(Cl)csc2Cl)C1 (stereo unspecified)
44 | ≤ 10 | O=C1CCC(CCc2ccccc2)CN1c1c(Cl)cccc1Cl (stereo unspecified)
45 | ≤ 10 | O=C1CCC(Cc2ccc(F)cc2)CN1C1C(Cl)CCCC1Cl (stereo unspecified)
46 | ≤ 10 | O=C1SCC(Cc2ccccc2Cl)CN1c1c(Cl)cccc1Cl (stereo unspecified)

Row | IC50 [µM] | SMILES
47 | ≤ 10 | CC(=O)Nc1cc(Cl)c(N2CC(Cc3ccc(F)cc3F)SCC2=O)c(Cl)c1 (stereo unspecified)
48 | ≤ 10 | CNc1cc(Cl)c(N2CC(Sc3ccc(F)cc3F)CCC2=O)c(Cl)n1 (stereo unspecified)
49 | ≤ 10 | O=C1CCC(Oc2cc(Cl)cc(Cl)c2)CN1c1c(Cl)cccc1Cl (stereo unspecified)
50 | ≤ 10 | O=C1CSC(Cc2ccccc2F)CN1c1c(Cl)cccc1Cl (stereo unspecified)
51 | ≤ 10 | O=C(NCc1ccccc1CC1CCC(=O)N(c2c(Cl)cccc2Cl)C1)Nc1cccc(C(F)(F)F)c1 (stereo unspecified)
52 | ≤ 10 | CC(=O)NC1CCC(Cl)C(N2CC(Oc3ccc(F)cc3F)CCC2=O)C1Cl (stereo unspecified)
53 | ≤ 10 | CNc1cnc(Cl)c(N2CC(Cc3ccc(F)cc3F)CCC2=O)c1Cl (stereo unspecified)
54 | ≤ 10 | O=C1CCC(Oc2ccc(F)cc2F)CN1c1c(Cl)ccc(O)c1Cl (stereo unspecified)
55 | ≤ 10 | O=C1CCC(Cc2ccc(F)cc2F)CN1c1c(Cl)cc(COC(c2ccccc2)(c2ccccc2)c2ccccc2)cc1Cl (stereo unspecified)
56 | ≤ 10 | O=C1CCC(Cc2ccccc2F)CN1C1C(Cl)CCCC1Cl (stereo unspecified)
57 | ≤ 10 | Cc1ccc(CC2CCC(=O)N(c3c(Cl)cccc3Cl)C2)cc1 (stereo unspecified)
58 | ≤ 10 | CC(C)(C)OC(=O)Nc1ccc(N2CC(Cc3ccc(F)cc3F)CCC2=O)c(Cl)c1 (stereo unspecified)
59 | ≤ 10 | O=C1CCC(Oc2ccc3ccccc3c2)CN1c1c(Cl)ccnc1Cl (stereo unspecified)
60 | ≤ 10 | O=C1CCC(Nc2ccc(F)cc2F)CN1c1c(Cl)cccc1Cl (stereo unspecified)
61 | ≤ 10 | O=C1CCC(Cc2ccc(F)cc2F)CN1c1c(Cl)cc(C#CCO)cc1Cl (stereo unspecified)
62 | ≤ 10 | O=C1CCC(Cc2ccc(F)cc2F)CN1c1c(Cl)cc(CO)cc1Cl (stereo unspecified)
63 | ≤ 10 | O=C1CCC(Cc2ccc(F)cc2)CN1c1c(Cl)cncc1Cl (stereo unspecified)
64 | ≤ 10 | O=C1CCC(Cc2ccc(Cl)cc2)CN1C1C(Cl)CCCC1Cl (stereo unspecified)
65 | ≤ 10 | CC[C@@H]1C[C@@H](Cc2ccc(F)cc2F)CN(c2c(Cl)cccc2Cl)C1=O
66 | ≤ 10 | CN(C)c1cc(Cl)c(N2CC(Cc3ccc(F)cc3F)CCC2=O)c(Cl)c1 (stereo unspecified)
67 | ≤ 10 | Nc1sc(Cl)c(N2CC(Oc3ccc(F)cc3F)CCC2=O)c1Cl (stereo unspecified)
68 | ≤ 10 | O=C1CCC(Cc2ccc(F)cc2)CN1c1c(Cl)cccc1Cl (stereo unspecified)
69 | ≤ 10 | CC(C)(C)OC(=O)N(Cc1ccccn1)c1cc(Cl)c(N2CC(Cc3ccc(F)cc3F)CCC2=O)c(Cl)c1 (stereo unspecified)

Row | IC50 [µM] | SMILES
70 | ≤ 10 | O=C1CCC(Cc2ccc(Cl)cc2Cl)CN1c1c(Cl)csc1Cl (stereo unspecified)
71 | ≤ 10 | O=C(CNc1cc(Cl)c(N2CC(Cc3ccc(F)cc3F)CCC2=O)c(Cl)c1)NOCc1ccccc1 (stereo unspecified)
72 | ≤ 10 | NCCCc1cc(Cl)c(N2CC(Cc3ccc(F)cc3F)CCC2=O)c(Cl)c1 (stereo unspecified)
73 | ≤ 10 | Cc1ccc(CC2CCC(=O)N(C3C(Cl)CCCC3Cl)C2)cc1 (stereo unspecified)
74 | ≤ 10 | CCOC(=O)CCC(=O)Nc1cc(Cl)c(N2CC(Cc3ccc(F)cc3F)CCC2=O)c(Cl)c1 (stereo unspecified)
75 | ≤ 10 | CNc1ccc(Cl)c(N2CC(Cc3ccc(F)cc3F)COC2=O)c1Cl (stereo unspecified)
76 | ≤ 10 | Cc1cc(C#CCN(C)C)cc(C)c1N1C[C@@H](Cc2ccc(F)cc2F)C[C@@H](C)C1=O
77 | ≤ 10 | CN(C)CCCCc1cc(Cl)c(N2CC(Cc3ccc(F)cc3F)CCC2=O)c(Cl)c1 (stereo unspecified)
78 | ≤ 10 | O=C1OCC(Cc2ccc(Cl)cc2)CN1c1c(Cl)cccc1Cl (stereo unspecified)
79 | ≤ 10 | O=C1CCC(Cc2ccc3ccccc3c2)CN1c1c(Cl)ccnc1Cl (stereo unspecified)
80 | ≤ 10 | CNc1ccc(Cl)c(N2CC(Sc3ccc(F)cc3F)CCC2=O)c1Cl (stereo unspecified)
81 | ≤ 10 | O=C1CCC(Oc2ccc3ccccc3c2)CN1c1c(Cl)cccc1Cl (stereo unspecified)
82 | ≤ 10 | Cc1ccccc1CC1COC(=O)N(c2c(Cl)cccc2Cl)C1 (stereo unspecified)
83 | ≤ 10 | Nc1cc(Cl)c(N2CC(Oc3ccc(F)cc3F)CCC2=O)c(Cl)c1 (stereo unspecified)
84 | ≤ 10 | Cc1ccc(CC2CN(C)C(=O)N(c3c(Cl)cccc3Cl)C2)c(C)c1 (stereo unspecified)
85 | ≤ 10 | O=C1CCC(Oc2ccc(F)cc2F)CN1C1C(Cl)CCC(O)C1Cl (stereo unspecified)
86 | ≤ 10 | O=C1CCC(Oc2ccc(F)cc2)CN1c1c(Cl)cccc1Cl (stereo unspecified)
87 | ≤ 10 | Cc1cc(C(=O)NCCN(C)C)cc(C)c1N1CC(Cc2ccc(F)cc2F)CCC1=O (stereo unspecified)
88 | ≤ 10 | COC(=O)/C=C/c1cc(Cl)c(N2CC(Cc3ccc(F)cc3F)CCC2=O)c(Cl)c1 (stereo unspecified)
89 | ≤ 10 | CC(=O)Nc1cc(Cl)c(N2CC(Oc3ccc(F)cc3F)CCC2=O)c(Cl)n1 (stereo unspecified)
90 | ≤ 10 | CC(=O)NC1CC(Cl)C(N2CC(Sc3ccc(F)cc3F)CCC2=O)C(Cl)C1 (stereo unspecified)
91 | ≤ 10 | Cc1cc(C)cc(CC2CCC(=O)N(c3c(Cl)csc3Cl)C2)c1 (stereo unspecified)
92 | ≤ 10 | Cc1cc(C(=O)NCCC(=O)O)cc(C)c1N1CC(Cc2ccc(F)cc2F)CCC1=O (stereo unspecified)

Row | IC50 [µM] | SMILES
93 | ≤ 10 | Cc1cc(C(=O)O)cc(C)c1N1CC(Cc2ccc(F)cc2F)CCC1=O (stereo unspecified)
94 | ≤ 10 | Nc1sc(Cl)c(N2CC(Cc3ccc(F)cc3F)CCC2=O)c1Cl (stereo unspecified)
95 | ≤ 10 | O=C1CCC(Sc2ccc(Cl)cc2Cl)CN1c1c(Cl)cncc1Cl (stereo unspecified)
96 | ≤ 10 | O=C(Cc1ccccc1)Nc1ccc(Cl)c(N2CC(Sc3ccc(F)cc3F)CCC2=O)c1Cl (stereo unspecified)
97 | ≤ 10 | N[C@@H](Cc1ccc(O)cc1)C(=O)Nc1cc(Cl)c(N2CC(Cc3ccc(F)cc3F)CCC2=O)c(Cl)c1 (stereo partly specified)
98 | ≤ 10 | O=C1CCC(Oc2ccc(F)cc2F)CN1c1c(Cl)cnc(O)c1Cl (stereo unspecified)
99 | ≤ 10 | O=C1NCC(Cc2ccc(F)cc2)CN1c1c(Cl)cccc1Cl (stereo unspecified)
100 | ≤ 10 | O=C1CCC(Sc2ccccc2)CN1c1c(Cl)ccnc1Cl (stereo unspecified)
101 | ≤ 10 | CN1CC(Cc2cccc3ccccc23)CN(c2c(Cl)cccc2Cl)C1=O (stereo unspecified)
102 | ≤ 10 | O=C1CCC(C(Cl)c2ccc(F)cc2F)CN1c1c(Cl)cccc1Cl (stereo unspecified)
103 | ≤ 10 | CC(=O)NCCNc1cc(Cl)c(N2CC(Cc3ccc(F)cc3F)CCC2=O)c(Cl)c1 (stereo unspecified)
104 | ≤ 10 | O=C1NCC(Cc2ccc(F)cc2F)CN1c1c(Cl)cc(O)cc1Cl (stereo unspecified)
105 | ≤ 10 | O=C1CCC(Cc2cc(F)cc(F)c2)CN1c1c(Cl)cccc1Cl (stereo unspecified)
106 | ≤ 10 | CN1CC(Cc2ccc3ccccc3c2)CN(c2c(Cl)cccc2Cl)C1=O (stereo unspecified)
107 | ≤ 10 | O=C1SCC(Cc2ccc3ccccc3c2)CN1c1c(Cl)cccc1Cl (stereo unspecified)
108 | ≤ 10 | O=C1CCC(Oc2ccc(F)cc2F)CN1c1c(Cl)cc(CO)cc1Cl (stereo unspecified)
109 | ≤ 10 | O=C1CCC(Cc2cccc3ccccc23)CN1c1c(Cl)csc1Cl (stereo unspecified)
110 | ≤ 10 | O=C1CCC(Oc2ccc(F)cc2F)CN1c1c(Cl)ncc(O)c1Cl (stereo unspecified)
111 | ≤ 10 | Nc1ccc(Cl)c(N2CC(Cc3ccc(F)cc3F)OCC2=O)c1Cl (stereo unspecified)
